≈ marks a conversion by molar mass, not a printed value.
What was measured:
HepG2 = assay: Cytotoxicity against human HepG2 cells assessed as reduction in cell viability at 1 to 100 uM incubated for 4 hrs by CellTiter-Glo luminescence assay; assay type: toxicity, cell-based; settings: hepg2, 4 h, dose 1-100 µM
[1] = Chromatographic hydrophobicity index of the compound in ammonium acetate buffer at pH 7.4 by RP-HPLC analysis; assay type: physicochemical
Acetylcholinesterase = Acetylcholinesterase (Homo sapiens, UniProt P22303)
Description: Inhibition of human recombinant AChE by Ellman's spectrophotometric assay

[2] = Intrinsic clearance in mouse liver microsomes at 0.5 uM incubated upto 30 mins in presence of NADPH measured per mg protein by LC/MS/MS analysis; assay type: ADME, Microsome; settings: read-out: CLH
SH-SY5Y = assay: Cytotoxicity against human SH-SY5Y cells assessed as reduction in cell viability at 1 to 100 uM incubated for 4 hrs by CellTiter-Glo luminescence assay; assay type: toxicity, cell-based; settings: dose 1-100 µM
[3] = Kinetic aqueous solubility of the compound in PBS incubated for 2 hrs under mild shaking at pH 7.4 by UV- vis spectrophotometric analysis; assay type: physicochemical; settings: read-out: Kinetic_solubility
[4] = Microsomal stability in mouse liver microsomes assessed as half life at 0.5 uM incubated upto 30 mins in presence of NADPH by LC/MS/MS analysis; assay type: ADME, Microsome
[5] = Effective permeability of the compound in PBS buffer at pH 7.4 by PAMPA-BBB assay; assay type: ADME; settings: read-out: Peff
[6] = 1-Octanol/PBS buffer distribution coefficient, log D of the compound at 1 uM measured after 24 hrs at pH 7.4 by shake flask based HPLC-ES-MS/MS analysis; assay type: physicochemical
[7] = Apparent permeability across basolateral to apical side in human Caco-2 cells at 10 uM incubated for 60 mins by HPLC-MS/MS method; assay type: ADME, cell-based
[8] = Efflux ratio of apparent permeability across basolateral to apical side over apical to basolateral side in human Caco-2 cells; assay type: ADME, cell-based
[9] = Apparent permeability across apical to basolateral side in human Caco-2 cells at 10 uM incubated for 60 mins by HPLC-MS/MS method; assay type: ADME, cell-based
[10] = target: Cholinesterase (Equus caballus) (UniProt P81908); assay: Inhibition of horse serum BChE at 10 uM by Ellman's spectrophotometric assay; assay type: cell-free
[11] = target: T1, Amine oxidase [flavin-containing] B (Homo sapiens, UniProt P27338)
T1 sequence (P27338 whole entry): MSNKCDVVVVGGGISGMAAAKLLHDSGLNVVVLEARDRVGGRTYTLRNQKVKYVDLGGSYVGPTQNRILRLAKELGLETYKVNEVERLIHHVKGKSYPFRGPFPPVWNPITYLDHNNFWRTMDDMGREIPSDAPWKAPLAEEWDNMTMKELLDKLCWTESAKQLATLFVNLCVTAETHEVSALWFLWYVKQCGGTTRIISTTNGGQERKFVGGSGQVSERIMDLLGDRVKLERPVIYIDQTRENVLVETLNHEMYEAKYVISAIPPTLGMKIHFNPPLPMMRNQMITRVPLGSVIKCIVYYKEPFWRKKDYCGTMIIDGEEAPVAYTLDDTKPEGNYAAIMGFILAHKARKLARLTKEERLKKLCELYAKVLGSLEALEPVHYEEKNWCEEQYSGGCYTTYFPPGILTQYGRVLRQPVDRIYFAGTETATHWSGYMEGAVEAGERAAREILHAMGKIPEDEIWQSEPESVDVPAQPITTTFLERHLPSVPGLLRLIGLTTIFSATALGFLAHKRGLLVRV
Description: Inhibition of human recombinant MAO-B expressed in supersomes assessed as inhibition of 4-hydroxyquinoline formation using kynuramine as substrate by spectrofluorimetric analysis

MAO-A = target: T2, MAO-A (Homo sapiens, UniProt P21397); assay: in vitro; settings: recombinant MAO-A expressed in supersomes, probe kynuramine
T2 sequence (P21397 whole entry): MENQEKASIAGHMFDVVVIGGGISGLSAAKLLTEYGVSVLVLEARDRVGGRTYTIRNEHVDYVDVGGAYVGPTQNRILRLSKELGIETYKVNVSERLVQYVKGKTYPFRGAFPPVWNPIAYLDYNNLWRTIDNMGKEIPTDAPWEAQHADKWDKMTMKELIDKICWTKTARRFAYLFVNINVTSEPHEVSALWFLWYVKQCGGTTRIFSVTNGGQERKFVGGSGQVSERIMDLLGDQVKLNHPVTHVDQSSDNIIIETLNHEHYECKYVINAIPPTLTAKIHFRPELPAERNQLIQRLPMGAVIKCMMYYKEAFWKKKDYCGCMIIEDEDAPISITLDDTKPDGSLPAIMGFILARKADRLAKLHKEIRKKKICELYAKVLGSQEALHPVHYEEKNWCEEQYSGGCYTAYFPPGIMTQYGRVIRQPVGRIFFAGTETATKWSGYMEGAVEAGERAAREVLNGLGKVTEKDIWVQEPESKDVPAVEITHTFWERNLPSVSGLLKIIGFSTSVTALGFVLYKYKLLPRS

[12] = target: T3, Amine oxidase [flavin-containing] A (Homo sapiens, UniProt P21397)
T3 sequence (P21397 whole entry): T2 sequence (P21397 whole entry)
Description: Inhibition of human recombinant MAO-A expressed in supersomes assessed as inhibition of 4-hydroxyquinoline formation using kynuramine as substrate by spectrofluorimetric analysis

Cytochrome P450 3A4 = Cytochrome P450 3A4 (Homo sapiens, UniProt P08684); assay: Inhibition of human recombinant CYP3A4 expressed in baculosomes by fluorescent homogenous assay; assay type: ADME
Cholinesterase = Cholinesterase (Equus caballus, UniProt P81908)
Description: Inhibition of horse serum BChE by Ellman's spectrophotometric assay

[13] = target: T1, Amine oxidase [flavin-containing] B; assay: Reversible inhibition of human recombinant MAO-B expressed in supersomes using kynuramine as substrate at 10 nM co-incubated with enzyme and measured over 6 hrs by spectrophotometric method; settings: 0.01 µM
[14] = target: T1, Amine oxidase [flavin-containing] B; assay: Inhibition of human recombinant MAO-B expressed in supersomes assessed as inhibition of 4-hydroxyquinoline formation using kynuramine as substrate by spectrophotometric method
[15] = Intrinsic clearance in human liver microsomes at 0.5 uM incubated upto 60 mins in presence of NADPH measured per mg protein by LC/MS/MS analysis; assay type: ADME, Microsome; settings: read-out: CLH
[16] = Microsomal stability in human liver microsomes assessed as half life at 0.5 uM incubated upto 60 mins in presence of NADPH by LC/MS/MS analysis; assay type: ADME, Microsome

Chain of Cholinesterase (Equus caballus) (P81908 whole entry): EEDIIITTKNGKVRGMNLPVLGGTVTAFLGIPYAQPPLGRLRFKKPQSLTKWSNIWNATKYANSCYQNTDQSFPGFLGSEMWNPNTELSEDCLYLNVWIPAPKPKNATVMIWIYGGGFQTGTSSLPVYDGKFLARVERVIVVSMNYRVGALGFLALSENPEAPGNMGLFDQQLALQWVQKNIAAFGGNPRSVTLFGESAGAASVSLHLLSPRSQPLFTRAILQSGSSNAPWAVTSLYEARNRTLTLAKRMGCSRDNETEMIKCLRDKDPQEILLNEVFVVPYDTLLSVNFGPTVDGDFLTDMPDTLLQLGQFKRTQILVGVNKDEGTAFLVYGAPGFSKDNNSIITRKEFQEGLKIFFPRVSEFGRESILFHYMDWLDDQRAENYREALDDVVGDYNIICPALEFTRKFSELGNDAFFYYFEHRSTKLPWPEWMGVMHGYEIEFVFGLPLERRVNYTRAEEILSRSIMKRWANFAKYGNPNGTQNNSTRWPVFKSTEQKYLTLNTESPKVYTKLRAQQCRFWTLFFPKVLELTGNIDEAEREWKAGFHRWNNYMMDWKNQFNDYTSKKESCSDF
Chain of Cholinesterase (P81908 whole entry): as above
Chain of Acetylcholinesterase (P22303 whole entry): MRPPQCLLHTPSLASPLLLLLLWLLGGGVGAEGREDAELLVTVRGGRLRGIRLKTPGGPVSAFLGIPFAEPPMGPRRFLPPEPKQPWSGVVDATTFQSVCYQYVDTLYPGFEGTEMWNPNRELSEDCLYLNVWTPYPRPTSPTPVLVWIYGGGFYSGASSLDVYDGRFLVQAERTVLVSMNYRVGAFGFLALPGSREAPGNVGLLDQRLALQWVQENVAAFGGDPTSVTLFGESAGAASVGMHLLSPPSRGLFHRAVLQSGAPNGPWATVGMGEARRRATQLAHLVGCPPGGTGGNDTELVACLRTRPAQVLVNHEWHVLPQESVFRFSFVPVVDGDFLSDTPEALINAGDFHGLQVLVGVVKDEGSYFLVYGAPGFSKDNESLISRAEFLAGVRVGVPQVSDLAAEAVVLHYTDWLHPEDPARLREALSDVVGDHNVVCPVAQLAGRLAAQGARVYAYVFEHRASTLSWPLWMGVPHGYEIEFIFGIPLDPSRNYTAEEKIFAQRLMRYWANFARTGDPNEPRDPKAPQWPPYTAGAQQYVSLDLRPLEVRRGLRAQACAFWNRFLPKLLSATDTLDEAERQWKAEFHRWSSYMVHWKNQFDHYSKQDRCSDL
Chain of Cytochrome P450 3A4 (P08684 whole entry): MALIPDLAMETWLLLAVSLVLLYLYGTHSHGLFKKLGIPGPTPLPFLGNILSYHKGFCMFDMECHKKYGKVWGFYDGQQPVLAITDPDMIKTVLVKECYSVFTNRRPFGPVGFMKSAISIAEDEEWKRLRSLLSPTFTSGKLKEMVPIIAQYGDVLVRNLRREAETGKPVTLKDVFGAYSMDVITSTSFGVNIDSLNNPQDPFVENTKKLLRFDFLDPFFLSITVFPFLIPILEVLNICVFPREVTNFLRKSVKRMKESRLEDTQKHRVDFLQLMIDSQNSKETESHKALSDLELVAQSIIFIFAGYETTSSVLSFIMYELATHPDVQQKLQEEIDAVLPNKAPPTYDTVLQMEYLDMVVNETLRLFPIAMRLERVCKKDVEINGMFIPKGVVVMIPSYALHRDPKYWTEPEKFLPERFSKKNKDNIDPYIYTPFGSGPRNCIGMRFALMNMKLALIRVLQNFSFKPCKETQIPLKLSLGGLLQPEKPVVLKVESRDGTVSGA

Row | SMILES | CHI [1] | IC50 (Acetylcholinesterase) [µM] | microsomal CLint at 0.5 µM [2] [µL/min/mg] | solubility kinetic at 2 h [3] [µM] | half-life at 0.5 µM [4] [min] | Papp [5] [×10⁻⁶ cm/s] | logD at 24 h, 1 µM [6] | inhibition [10] [%] | IC50 [11] [µM] | inhibition at 10 µM (MAO-A) [%] | IC50 [12] [µM] | IC50 (Cholinesterase) [µM] | other results
1 | Cc1c(C)c2ccc(OCC3CCCN(CCCO)C3)cc2oc1=O (racemic) | 48.8 | 1.1 | 15.1 | > 500 | 92.4 | 7.2 | 1.15 | – | – | – | – | – | Activity (HepG2): Non-Toxic; Activity (SH-SY5Y): Non-Toxic
2 | Cc1c(C)c2ccc(OCC3CCN(Cc4ccccc4)CC3)cc2oc1=O | 99.7 | 0.38 | 206 | 57 (≈ 21.5 µg/mL) | 6.7 | – | 3.4 | – | – | – | – | – | Papp B→A at 1 h, 10 µM [7]: 12 ×10⁻⁶ cm/s; efflux ratio [8]: 1.6; Papp A→B at 1 h, 10 µM [9]: 7 ×10⁻⁶ cm/s
3 | CN(CCCO)Cc1ccc(COc2ccc3c(CO)cc(=O)oc3c2)cc1 | 35.6 | 2.2 | – | > 500 | – | 3.1 | – | 27 | 0.42 | 13 | – | – | –
4 | Cc1c(C)c2ccc(OCc3cccc(CN(C)CCCC(F)F)c3)cc2oc1=O | > 100 | 1.7 | 289 | 13 (≈ 5.4 µg/mL) | 4.8 | – | 3.65 | – | 0.56 | – | 4.2 | 1.6 | IC50 (Cytochrome P450 3A4): 0.6 µM
5 | C[C@H](NCc1ccc(OCc2cccc(F)c2)cc1)C(N)=O [SAFINAMIDE] | – | – | – | – | – | – | – | – | – | – | – | – | inhibition (INH) [13]: Active
6 | Cc1c(C)c2ccc(OCC3CCN(Cc4cccc(F)c4)CC3)cc2oc1=O | > 100 | 0.46 | 225 | 11 (≈ 4.35 µg/mL) | 6.2 | – | 3.43 | – | 0.14 | – | 2.5 | 2.9 | inhibition (INH) [14]: Active
7 | Cc1c(C)c2ccc(OCC3CCN(CCCC(F)F)CC3)cc2oc1=O | 73.4 | 1.2 | 116 | 448 (≈ 170 µg/mL) | 11.9 | 10.8 | 2.34 | 8 | 0.53 | 40 | – | – | IC50 (Cytochrome P450 3A4): 0.8 µM; Papp B→A at 1 h, 10 µM [7]: 16 ×10⁻⁶ cm/s; efflux ratio [8]: 1; Papp A→B at 1 h, 10 µM [9]: 17 ×10⁻⁶ cm/s; microsomal CLint at 0.5 µM [15]: 14.1 µL/min/mg; half-life at 0.5 µM [16]: 98.9 min
8 | Cc1c(C)c2ccc(OCCCN(Cc3cccc(F)c3)C(C)C)cc2oc1=O | > 100 | 0.91 | – | 13 (≈ 5.17 µg/mL) | – | – | – | 22 | 0.35 | – | 8.1 | – | inhibition (INH) [14]: Active
9 | Cc1c(C)c2ccc(OCc3ccc(CN(C)CCCC(F)F)cc3)cc2oc1=O | > 100 | 1.5 | – | 13 (≈ 5.4 µg/mL) | – | – | 3.78 | – | 0.16 | 45 | – | 4.1 | –

From ChEMBL document CHEMBL5046285, “Probing Fluorinated Motifs onto Dual AChE-MAO B Inhibitors: Rational Design, Synthesis, Biological Evaluation, and Early-ADME Studies” (J Med Chem, 2022)
